Test systems include HCT-15; COLO 205; SF-539; SNB-19; OVCAR-8; NCI/ADR-RES; CCRF-CEM; TK-10; T47D; MDA-MB-435; SN12C; 786-0; OVCAR-5; RPMI-8226; UACC-62; IGROV-1; CAKI-1; NCI-H522; SK-MEL-5; LOX IMVI.
What all share (assay): growth of human tumour cells (NCI), 48 h

Consider 11 compounds from ChEMBL document CHEMBL1201862, “PubChem BioAssay data set” (2004).

Each structure is given as a SMILES string.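 Briefly, cells in 96-well plates were exposed to five compound concentrations for 48 h, and endpoints were estimated by linear interpolation. Here, GI50 denotes the concentration required for 50% inhibition of growth.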 The source made the active and inactive calls. No stated cut-off is given here; in the data, active = GI50 up to about 1.1 µM and inactive = higher. Where only a bound is given, the exact number is not on record here.

For `Cc1ccc(/S(Cc2ccccc2)=N\S(=O)(=O)c2ccc(C)cc2)cc1` (stereo unspecified), the GI50 with HCT-15 is 95.1 µM; in the assay on COLO 205, > 100 µM (inactive); with SF-539 it was > 100 µM (inactive); with SNB-19, > 100 µM (inactive); with OVCAR-8 it was > 100 µM (inactive); in the assay with NCI/ADR-RES, 50 µM (inactive). The GI50 with CCRF-CEM, with TK-10, with T47D, in the assay with MDA-MB-435, in the assay with SN12C and with 786-0 was > 100 µM (inactive) each time. For the same compound, the GI50 in the assay on OVCAR-5 and in the assay with RPMI-8226 was > 100 µM (inactive) each time.

In the case of `COc1cc2c(cc1O)C(=O)O[C@@H]1CC=C3CCN(C)[C@H]3[C@H]21`, the GI50 is > 25 µM (inactive) in the assay on UACC-62; over 25 µM in the assay on HCT-15; > 25 µM (inactive) with IGROV-1; > 25 µM (inactive) in the assay on CAKI-1; > 25 µM (inactive) with SNB-19; > 25 µM (inactive) in the assay with OVCAR-8. Also, the GI50 in the assay with NCI/ADR-RES, in the assay with CCRF-CEM, in the assay on TK-10, with T47D, with MDA-MB-435 and in the assay on SN12C was > 25 µM (inactive) each time. Moreover, the GI50 in the assay on NCI-H522, with SK-MEL-5, in the assay with 786-0, in the assay on OVCAR-5 and with RPMI-8226 was > 25 µM (inactive) each time.

With `COC(=O)/C=C(C)/C=C\COC1CCCCO1` (stereo unspecified), the GI50 with UACC-62 was > 100 µM (inactive); with HCT-15 it was over 100 µM; in the assay with IGROV-1 it was > 100 µM (inactive); with CAKI-1, > 100 µM (inactive); in the assay with COLO 205, > 100 µM (inactive); in the assay with SNB-19, > 100 µM (inactive). Also, the GI50 in the assay with OVCAR-8, in the assay on LOX IMVI, in the assay on NCI/ADR-RES, with CCRF-CEM, in the assay on TK-10 and in the assay on T47D was > 100 µM (inactive) each time. For the same compound, the GI50 in the assay on MDA-MB-435, with SN12C, in the assay with NCI-H522, in the assay on SK-MEL-5, in the assay on 786-0 and with OVCAR-5 was > 100 µM (inactive) in each case. In addition, the GI50 with RPMI-8226 was > 100 µM (inactive).

For `S=C(Nc1ccccc1)c1ccc(CN2CCCCC2)s1`, the GI50 was 18.7 µM (inactive) with UACC-62; 18.3 µM in the assay on HCT-15; 24 µM (inactive) with IGROV-1; 20.7 µM (inactive) in the assay with CAKI-1; 18.7 µM (inactive) in the assay with COLO 205; 37.8 µM (inactive) with SF-539. Besides, the GI50 in the assay with SNB-19 is 20.2 µM (inactive); in the assay with OVCAR-8, 15.6 µM (inactive); in the assay with LOX IMVI, 17.7 µM (inactive); in the assay with NCI/ADR-RES, 28.6 µM (inactive); with CCRF-CEM it was 16.4 µM (inactive); with T47D it was 26.4 µM (inactive). Also, the GI50 in the assay on MDA-MB-435 was 18.1 µM (inactive); in the assay on NCI-H522, 17.8 µM (inactive); in the assay with SK-MEL-5 it was 16.3 µM (inactive); with 786-0 it was 17.6 µM (inactive); in the assay with OVCAR-5, 16.2 µM (inactive); with RPMI-8226 it was 21.7 µM (inactive).

As to `O=[N+]([O-])/C(C(Cl)=C(Cl)Cl)=C1\Nc2ccc([N+](=O)[O-])cc2N1`, the GI50 with UACC-62 is > 100 µM (inactive); in the assay on HCT-15, over 100 µM; in the assay with CAKI-1, 72.1 µM (inactive); with COLO 205, > 100 µM (inactive); in the assay with SNB-19 it was > 100 µM (inactive); in the assay on NCI/ADR-RES, > 100 µM (inactive). Further, the GI50 with CCRF-CEM is 27.4 µM (inactive); in the assay on TK-10, > 100 µM (inactive); in the assay with T47D, > 100 µM (inactive); in the assay on MDA-MB-435 it was > 100 µM (inactive); with SN12C, 55.7 µM (inactive); in the assay with NCI-H522 it was 13.5 µM (inactive). In addition, the GI50 was > 100 µM (inactive) in the assay with SK-MEL-5, > 100 µM (inactive) in the assay with 786-0, > 100 µM (inactive) in the assay on OVCAR-5 and 55 µM (inactive) in the assay with RPMI-8226.

Turning to `Cc1ccccc1NC(=O)/C(C#N)=N\Nc1[nH]cnc1C(N)=O`, the GI50 in the assay with UACC-62 was 12.9 µM (inactive); in the assay with HCT-15, 19.3 µM; with IGROV-1, 4.88 µM (inactive); in the assay on CAKI-1 it was 2.59 µM (inactive); in the assay with COLO 205, 21.9 µM (inactive); in the assay with SNB-19, > 100 µM (inactive). Moreover, the GI50 in the assay on OVCAR-8 was 1.51 µM (inactive); in the assay on NCI/ADR-RES, 2.45 µM (inactive); in the assay on CCRF-CEM, 2.96 µM (inactive); in the assay with TK-10, 3.08 µM (inactive); with T47D it was 25.9 µM (inactive); in the assay with MDA-MB-435, 4.68 µM (inactive). Also, the GI50 was 5 µM (inactive) with SN12C; 18 µM (inactive) in the assay with NCI-H522; 35.3 µM (inactive) in the assay with SK-MEL-5; 19.3 µM (inactive) with 786-0; 40.3 µM (inactive) with OVCAR-5; 1.83 µM (inactive) in the assay on RPMI-8226.

Regarding `CC(O)C(NC(=O)C(CS)NC(=O)C(CO)NC(=O)C(CCCCN)NC(=O)C(Cc1c[nH]c2ccccc12)NC(=O)C(Cc1ccc(O)cc1)NC(=O)C(CS)NC(=O)C(N)Cc1ccccc1)C(N)=O` (stereo unspecified), the GI50 is > 25 µM (inactive) in the assay on UACC-62; over 25 µM with HCT-15; > 25 µM (inactive) in the assay with IGROV-1; > 25 µM (inactive) in the assay on CAKI-1; > 25 µM (inactive) in the assay on COLO 205; > 25 µM (inactive) with SF-539. The GI50 was 26.2 µM (inactive) in the assay with SNB-19; > 25 µM (inactive) with OVCAR-8; > 25 µM (inactive) in the assay with LOX IMVI; > 25 µM (inactive) in the assay on NCI/ADR-RES; > 25 µM (inactive) in the assay with CCRF-CEM; > 25 µM (inactive) with T47D. Also, the GI50 with MDA-MB-435, in the assay on SN12C, in the assay with NCI-H522, in the assay with SK-MEL-5, with 786-0 and with OVCAR-5 was > 25 µM (inactive) each time. For the same compound, the GI50 in the assay with RPMI-8226 was > 25 µM (inactive).

For the compound `C[P+](c1ccccc1)(c1ccc(Cl)cc1)c1ccc(Cl)cc1`, the GI50 with UACC-62 is 10.1 µM (inactive); in the assay on HCT-15, 88.9 µM; in the assay on IGROV-1, 4.94 µM (inactive); in the assay on COLO 205 it was 10.4 µM (inactive); in the assay with SF-539, 19.8 µM (inactive); in the assay with SNB-19, 13 µM (inactive). In addition, the GI50 was 14.7 µM (inactive) in the assay with OVCAR-8; 11.1 µM (inactive) in the assay with LOX IMVI; > 100 µM (inactive) with NCI/ADR-RES; 14.2 µM (inactive) with TK-10; 7.6 µM (inactive) in the assay on T47D; 5.45 µM (inactive) in the assay with MDA-MB-435. Also, the GI50 was 15.6 µM (inactive) in the assay on SN12C; 12.9 µM (inactive) in the assay with NCI-H522; 2.84 µM (inactive) in the assay on SK-MEL-5; 31.3 µM (inactive) in the assay with 786-0; 18.2 µM (inactive) with OVCAR-5; 0.432 µM (active) in the assay on RPMI-8226.

As to `O=C(C/C(=N/O)C(F)(F)F)c1cccs1`, the GI50 was > 100 µM (inactive) in the assay with UACC-62; over 100 µM in the assay with HCT-15; > 100 µM (inactive) in the assay on IGROV-1; > 100 µM (inactive) with CAKI-1; > 100 µM (inactive) in the assay with COLO 205; > 100 µM (inactive) in the assay on SF-539. Further, the GI50 in the assay on SNB-19 is 50 µM (inactive); in the assay with OVCAR-8, > 100 µM (inactive); in the assay on LOX IMVI it was > 100 µM (inactive); with NCI/ADR-RES, > 100 µM (inactive); in the assay with CCRF-CEM, > 100 µM (inactive); in the assay on TK-10, > 100 µM (inactive). For the same compound, the GI50 in the assay with T47D, with MDA-MB-435, in the assay with SN12C, in the assay on SK-MEL-5, with 786-0 and in the assay on OVCAR-5 was > 100 µM (inactive) throughout. Also, the GI50 in the assay with RPMI-8226 is > 100 µM (inactive).

As to `c1ccc2c(Cc3c[nH]c4ccccc34)c[nH]c2c1` [ARUNDINE], the GI50 with UACC-62 was > 100 µM (inactive); in the assay on HCT-15 it was 23.4 µM; in the assay on IGROV-1, 14.7 µM (inactive); with CAKI-1, 15.9 µM (inactive); in the assay on COLO 205, 13.6 µM (inactive); in the assay on SNB-19, 21.7 µM (inactive). For the same compound, the GI50 was 20.5 µM (inactive) with OVCAR-8; 20.3 µM (inactive) with LOX IMVI; 19.1 µM (inactive) with NCI/ADR-RES; 12.8 µM (inactive) in the assay with CCRF-CEM; 19.4 µM (inactive) in the assay with TK-10; 15.8 µM (inactive) with T47D. Further, the GI50 was 15.6 µM (inactive) in the assay with MDA-MB-435; 16.6 µM (inactive) in the assay on SN12C; 30.5 µM (inactive) with NCI-H522; 13.7 µM (inactive) in the assay with SK-MEL-5; 18.5 µM (inactive) in the assay on 786-0; 14.2 µM (inactive) in the assay with OVCAR-5. Also, the GI50 with RPMI-8226 was 20.2 µM (inactive).

In the case of `CCOS(C)(=O)=O` [METHANESULFONIC ACID ETHYL ESTER], the GI50 was > 100 µM (inactive) in the assay with UACC-62; over 100 µM with HCT-15; > 100 µM (inactive) in the assay with IGROV-1; > 100 µM (inactive) with CAKI-1; > 100 µM (inactive) with COLO 205; > 100 µM (inactive) with SF-539. Besides, the GI50 with SNB-19, in the assay with OVCAR-8, in the assay with LOX IMVI, in the assay with NCI/ADR-RES, in the assay with CCRF-CEM and in the assay with TK-10 was > 100 µM (inactive) throughout. The GI50 in the assay on T47D, in the assay on MDA-MB-435, with SN12C, with NCI-H522, in the assay on SK-MEL-5 and in the assay on 786-0 was > 100 µM (inactive) in each case. For the same compound, the GI50 with OVCAR-5 was > 100 µM (inactive).
